# From patent US12459932B2, “KIF18A inhibitors” (AMGEN INC., priority 2018, dated 2025)
# Target: T1, Recombinant human KIF18A (1-467 His-tagged) (Homo sapiens, UniProt Q8NI77)
# T1 construct: Recombinant human KIF18A (1-467 His-tagged) protein; His
# Assay: KIF18A Enzyme Assay: microtubule-stimulated ATPase activity (ADP-Glo)
# Assay type: biochemical
# Conditions: 30 nM KIF18A, 30 μg/mL pig microtubules, ATP 75 μM (Km), ADP-Glo luminescence
# Procedure, shortened: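 Measures microtubule-stimulated ATPase activity as ADP formed, detected by luminescence. Compounds were tested as 2-fold serial dilutions over 22 points. IC50 values came from four-parameter logistic fits.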
# T1 sequence (Q8NI77 1-467): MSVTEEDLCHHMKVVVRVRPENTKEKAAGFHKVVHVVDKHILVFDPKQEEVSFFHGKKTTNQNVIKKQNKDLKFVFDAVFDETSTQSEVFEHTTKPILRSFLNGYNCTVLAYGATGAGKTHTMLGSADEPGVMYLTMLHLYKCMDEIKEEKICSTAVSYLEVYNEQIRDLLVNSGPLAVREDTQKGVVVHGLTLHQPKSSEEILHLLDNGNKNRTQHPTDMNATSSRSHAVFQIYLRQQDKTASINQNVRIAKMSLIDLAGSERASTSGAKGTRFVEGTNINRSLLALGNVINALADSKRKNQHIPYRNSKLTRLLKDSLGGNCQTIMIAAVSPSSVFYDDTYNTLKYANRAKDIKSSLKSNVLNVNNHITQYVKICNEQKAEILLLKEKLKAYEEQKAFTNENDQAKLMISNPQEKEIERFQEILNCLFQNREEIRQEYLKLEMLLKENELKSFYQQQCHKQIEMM
# T1 sequence (P02550 whole entry partner): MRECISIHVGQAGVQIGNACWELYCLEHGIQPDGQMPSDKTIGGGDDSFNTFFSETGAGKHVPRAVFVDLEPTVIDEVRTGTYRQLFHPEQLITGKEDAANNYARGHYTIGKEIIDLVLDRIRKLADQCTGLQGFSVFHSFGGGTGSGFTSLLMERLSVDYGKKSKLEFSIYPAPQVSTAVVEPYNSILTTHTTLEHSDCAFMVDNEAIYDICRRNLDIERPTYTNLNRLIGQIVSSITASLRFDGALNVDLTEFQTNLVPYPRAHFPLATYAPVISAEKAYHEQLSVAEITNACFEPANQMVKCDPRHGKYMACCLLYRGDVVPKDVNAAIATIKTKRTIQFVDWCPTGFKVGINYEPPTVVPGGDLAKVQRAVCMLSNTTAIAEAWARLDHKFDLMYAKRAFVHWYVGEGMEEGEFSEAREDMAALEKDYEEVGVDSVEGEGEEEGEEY
# T1 sequence (P02554 whole entry partner): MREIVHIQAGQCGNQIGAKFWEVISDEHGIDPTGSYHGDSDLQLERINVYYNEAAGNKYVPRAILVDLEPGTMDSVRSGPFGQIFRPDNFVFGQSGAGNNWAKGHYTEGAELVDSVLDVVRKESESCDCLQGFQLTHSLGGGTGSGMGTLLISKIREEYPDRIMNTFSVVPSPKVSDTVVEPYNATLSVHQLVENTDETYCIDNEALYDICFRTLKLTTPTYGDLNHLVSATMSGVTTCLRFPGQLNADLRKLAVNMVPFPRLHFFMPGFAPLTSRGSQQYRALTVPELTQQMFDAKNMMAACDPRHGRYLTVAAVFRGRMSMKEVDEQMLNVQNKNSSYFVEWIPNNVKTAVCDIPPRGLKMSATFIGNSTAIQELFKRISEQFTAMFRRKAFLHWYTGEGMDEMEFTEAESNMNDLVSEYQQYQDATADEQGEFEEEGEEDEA
row,IC50 [nM],Structure (SMILES)
1,418,"C[C@@H]1CN(c2cccc(NC(=O)c3ccc(S(C)(=N)=O)cc3N3CCC4(CC3)CC4)n2)CCO1 (single isomer, unassigned) [Example 13-3]"
2,143,"CC1(S(=O)(=O)Nc2ccc(C(=O)Nc3cccc(N4CCC[C@@](C)(O)C4)n3)c(N3CCC4(CC3)CC4)c2)CC1 [Example 3-10, (R)-N-(6-(3-Hydroxy-3-methylpiperidin-1-yl)pyridin-2-yl)-4-((1-methylcyclopropane)-1-sulfonamido)-2-(6-azaspiro[2.5]octan-6-yl)benzamide]"
3,80,"CC1(NS(=O)(=O)c2ccc(C(=O)Nc3cccc(C(C)(C)O)n3)c(N3CCC4(CC3)CC4)c2)COC1 [Example 4-2, N-(6-(2-Hydroxypropan-2-yl)pyridin-2-yl)-4-(N-(3-methyloxetan-3-yl)sulfamoyl)-2-(6-azaspiro[2.5]octan-6-yl)benzamide]"
4,33,"C[C@H](CO)S(=O)(=O)Nc1ccc(C(=O)Nc2cccc(N3CC(F)C3)n2)c(N2CCC3(CC2)CC3)c1 (single isomer, unassigned) [Example 9-1]"
5,103,"Cc1cc(NC(=O)c2ccc(NS(=O)(=O)C3(C)CC3)cc2N2CCC3(CC2)CC3)nc(N2CC(F)(F)C2)c1 [Example 3-19, N-(6-(3,3-Difluoroazetidin-1-yl)-4-methylpyridin-2-yl)-4-((1-methylcyclopropane)-1-sulfonamido)-2-(6-azaspiro[2.5]octan-6-yl)benzamide]"
6,49,"Cc1cc(NC(=O)c2ccc(NS(C)(=O)=O)cc2N2CCC3(CC2)CC3)nc(N2CCC(F)(F)CC2)c1 [Example 7-21, N-(6-(4,4-Difluoropiperidin-1-yl)-4-methylpyridin-2-yl)-4-(methylsulfonamido)-2-(6-azaspiro[2.5]octan-6-yl)benzamide]"
7,163,"Cc1cc(NC(=O)c2ccc(NS(=O)(=O)C3(C)CC3)cc2N2CCC3(CC2)CC3)nc(C(C)(C)O)c1 [Example 4-17, N-(6-(2-Hydroxypropan-2-yl)-4-methylpyridin-2-yl)-4-((1-methylcyclopropane)-1-sulfonamido)-2-(6-azaspiro[2.5]octan-6-yl)benzamide]"
8,25,"Cc1cc(NC(=O)c2ccc(NS(=O)(=O)C3COC3)cc2N2CCC3(CC2)CC3)nc(N2CC(F)(F)C2)c1 [Example 7-32, N-(6-(3,3-Difluoroazetidin-1-yl)-4-methylpyridin-2-yl)-4-(oxetane-3-sulfonamido)-2-(6-azaspiro[2.5]octan-6-yl)benzamide]"
9,85,"C[C@@H]1CN(c2cccc(NC(=O)c3ccc(CS(C)(=O)=O)cc3N3CCC4(CC3)CC4)n2)CCO1 [Example 4-15, (R)-N-(6-(2-Methylmorpholino)pyridin-2-yl)-4-((methylsulfonyl)methyl)-2-(6-azaspiro[2.5]octan-6-yl)benzamide]"
10,95,"Cc1cc(NC(=O)c2ccc(NS(=O)(=O)C3(C)CC3)cc2N2CCC3(CC2)CC3)nc(N2CCC(F)(F)CC2)c1 [Example 4-10, N-(6-(4,4-Difluoropiperidin-1-yl)-4-methylpyridin-2-yl)-4-((1-methylcyclopropane)-1-sulfonamido)-2-(6-azaspiro[2.5]octan-6-yl)benzamide]"
11,24,"C[C@@H]1CN(c2cccc(NC(=O)c3ccc(NS(=O)(=O)CCF)cc3N3CCC4(CC3)CC4)n2)CCO1 [Example 7-35, (R)-4-((2-Fluoroethyl)sulfonamido)-N-(6-(2-methylmorpholino)pyridin-2-yl)-2-(6-azaspiro[2.5]octan-6-yl)benzamide]"
12,458,"C[C@@H]1CN(c2cccc(NC(=O)c3ccc(S(=O)(=O)N4CC(C)(C#N)C4)cc3N3CCC4(CC3)CC4)n2)CCO1 [Example 1-12, (R)-4-((3-Cyano-3-methylazetidin-1-yl)sulfonyl)-N-(6-(2-methylmorpholino)pyridin-2-yl)-2-(6-azaspiro[2.5]octan-6-yl)benzamide]"
13,186,"Cc1cc(NC(=O)c2ccc(NS(=O)(=O)CC3CC3)cc2N2CCC3(CC2)CC3)nc(N2CCC(F)(F)CC2)c1 [Example 7-24, 4-((Cyclopropylmethyl)sulfonamido)-N-(6-(4,4-difluoropiperidin-1-yl)-4-methylpyridin-2-yl)-2-(6-azaspiro[2.5]octan-6-yl)benzamide]"
14,50,"CC1(COc2cccc(NC(=O)c3ccc(NS(=O)(=O)CCO)cc3N3CCC4(CC3)CC4)n2)COC1 [Example 16-2, 4-((2-Hydroxyethyl)sulfonamido)-N-(6-((3-methyloxetan-3-yl)methoxy)pyridin-2-yl)-2-(6-azaspiro[2.5]octan-6-yl)benzamide]"
